Reference: PMC9321663, “The DevTox Germ Layer Reporter Platform: An Assay Adaptation of the Human Pluripotent Stem Cell Test” (Toxics, 2022)
Like-named read-outs stand apart in the source and are kept apart here.

Key:
[1] = system: SOX17 (endoderm marker) in RUES2-GLR cells; experiment: DevTox GLR-Endo assay: decrease in percent SOX17-positive cells (AEID 3094, Sox17_dn); details: for Emax / AC50: Homo sapiens; for DevTox-GLR Endo ACC: activity concentration at cutoff, SOX17-positive cells
Experimental: (§1) The total test chemical incubation period was 48 h.
(§2) Assay plate controls included non-differentiated pluripotent cells maintained in complete Essential 8 Flex medium (baseline control), endoderm differentiated cells (differentiation control), endoderm differentiated cells treated with DMSO (0.2%) (solvent control), and TGF-ß receptor inhibitor SB431542 (1 µM)-treated cells (developmental toxicant-positive control) (Figure S3). All experiments were completed with a minimum of four biological replicates (n = 4).
(§3) (Supplementary Materials).

[2] = system: SOX2 (ectoderm and pluripotency marker) in RUES2-GLR cells; experiment: DevTox GLR-Endo assay: increase in percent SOX2-positive cells (AEID 3095, Sox2_up); details: for AC50 / Emax: Homo sapiens; for AC50: read-out: ga (winning model); for Emax: read-out: tp (winning model);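 on all read-outs here: cells exposed to test chemicals for 48 h in total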
[3] = system: RUES2-GLR cells; experiment: DevTox GLR-Endo assay: decrease in total cell count, cytotoxicity (AEID 3098, CellCount_dn); details: for Emax: Homo sapiens, read-out: Cell Count % Max Inhibition
Experimental: as §1, §2, §3

[4] = system: SOX17 (endoderm marker) in RUES2-GLR cells; experiment: DevTox GLR-Endo assay: increase in percent SOX17-positive cells (AEID 3093, Sox17_up); type: cell-based, human; details: for Emax: Homo sapiens
Experimental: as §1, §3

[5] = system: BRA (mesoderm marker) in RUES2-GLR cells; experiment: DevTox GLR-Endo assay: increase in percent BRA-positive cells (AEID 3096, Bra_up); type: cell-based, human; parameters: tp (winning model): unit not given here; details: for ga (winning model): tcpl plot AEID3096, gain parameter of winning curve fit (log concentration, µM axis); for ga (winning model) / tp (winning model): hit calls only; for tp (winning model): tcpl plot AEID3096, top of winning curve fit
Experimental: as §1, §3

[6] = cited from earlier work; for Development Toxicant Classification: Table S2; for Classification: developmental toxicant classification (Teratogen / Non-Teratogen) of reference and training chemicals, ref DOI per chemical: 10.1093/toxsci/kft239, 10.1093/toxsci/kfaa014, 10.1177/026119290203000204, 10.1038/s41598-020-59542-x; for DT Class.: developmental toxicant classification, chemicals common with quickPredict
[7] = tcpl plot AEID3095, maximum mean response
[8] = tcpl plot AEID3095, maximum median response
[9] = tcpl plot AEID3093, maximum mean response, read-out: MAX_MEAN
[10] = tcpl plot AEID3093, maximum median response, read-out: MAX_MED
[11] = read-out: DevTox % Max Inhibition
[12] = read-out: ga (winning model), tcpl plot AEID3094, gain parameter of winning curve fit (log concentration, µM axis), hit calls only (converted)
[13] = Table S2, SOX17-positive cells, cutoff 3*bmad
[14] = Table S2, percent SOX17-positive cells, 48 h exposure
[15] = tcpl plot AEID3096, maximum mean response
[16] = tcpl plot AEID3096, maximum median response
[17] = read-out: maximum observed effect level class (% max inhibition)
[18] = Table S2, cell count relative to DMSO
[19] = tcpl plot AEID3093, maximum mean response
[20] = tcpl plot AEID3093, maximum median response
[21] = Table S2, percent SOX17-positive cells relative to DMSO
[22] = tcpl plot AEID3094, maximum mean response
[23] = tcpl plot AEID3094, maximum median response
[24] = DevTox GLR-Endo prediction against developmental toxicant classification

Row | Compound | MAX_MEAN [2, 7] [Percent Activity] | MAX_MED [2, 8] [Percent Activity] | Emax [3] [%] | Emax [4, 9] [%] | Emax [4, 10] [%] | HIT−CALL ([4]; tcpl plot AEID3093, COFF 20.3) | Emax [1, 11] [%] | Emax ([1]; read-out: MAX_MEAN) [%] | Emax ([1]; read-out: MAX_MED) [%] | Emax ([1]; read-out: tp (winning model)) [%] | Hit Call [1, 13] | DevTox ACC [1, 14] [µM] | HIT−CALL ([1]; tcpl plot AEID3094, COFF 20.3) | HIT−CALL ([5]; tcpl plot AEID3096, COFF 0.774) | MAX_MEAN [5, 15] [Percent Activity] | MAX_MED [5, 16] [Percent Activity] | Classification [6] | Cell Count ACC ([3]; human, 48 h) [µM] | other results
1 | NC(=O)c1ccc(-c2nc(-c3ccc4c(c3)OCO4)c(-c3ccccn3)[nH]2)cc1 [SB431542] | – | – | – | – | – | – | – | – | – | – | – | – | – | – | – | – | – | – | effect on SOX2 and SOX17 expression (in words) ([1]; 1 µM positive control, 48 h endoderm induction): loss of both SOX2 and SOX17
2 | CC(=O)CC(c1ccccc1)c1c(O)c2ccccc2oc1=O (stereo not drawn) [Warfarin] | 0.566 | 0.495 | 19.1 | 11.3 | 11.6 | 0 | 26.9 | 26.8 | 26.9 | 26.8 | Positive | 93.3273 | 1 | 1 | 0.949 | 0.975 | – | – | Cell Count ACC ([3]; Table S2, 48 h exposure): 197.749 µM; DevTox-GLR Endo CC ([3]; concentration at cell count cutoff, 48 h exposure): 197.75 µM; AC50 [1, 12]: 81.3 µM; DevTox-GLR Endo ACC ([1]; 48 h exposure): 93.33 µM
3 | O=P1(N(CCCl)CCCl)NCCCO1 (stereo not drawn) [Cyclophosphamide] | 0.952 | 0.491 | 25.6 | – | – | 0 | 7.49 | 6.4 | 7.49 | – | – | – | – | 0 | 0.871 | 0.897 | Teratogen | – | Cell Count ACC ([3]; human): 100.193 µM; DevTox-GLR Endo CC ([3]; human): 100.19 µM; effect on cell count (in words) ([3]; human): significant cell loss that did not impact SOX17-positive populations; Development Toxicant Classification [6]: Positive; DT Class. [6]: Pos; Emax ([4]; read-out: MAX_MEAN): 8.69%; Emax ([4]; read-out: MAX_MED): 8.98%; DevTox ACC [1]: >200 µM; HIT−CALL [1]: 0; Hit Call [1]: Negative; hit call designation (in words) [1]: false negative; Emax [1, 17]: 0 to 20%
4 | O=C(O)c1cc(/N=N/c2ccc(S(=O)(=O)Nc3ccccn3)cc2)ccc1O [Sulfasalazine] | 1.38 | 0.57 | 8.86 | 8.6 | 8.79 | 0 | 11.8 | 9.93 | 11.8 | – | Negative | >200 | 0 | 0 | 0.92 | 0.948 | – | >200 | –
5 | COC(=O)c1ccccc1C(=O)OC [Dimethyl Phthalate] | 1.15 | 0.556 | 11.9 | 6.35 | 7.43 | 0 | 6.7 | 7.41 | 6.7 | – | Negative | >200 | 0 | 0 | 0.821 | 0.835 | – | – | HIT−CALL [2]: 0; Cell Count ACC ([3]; Table S2, 48 h exposure): >200 µM
6 | Oc1cc(O)c2c(c1)OC(c1ccc(O)c(O)c1)C(O)C2 (stereo not drawn) [Cianidanol (Catechin)] | – | – | – | – | – | – | – | – | – | – | – | – | – | – | – | – | Non-Teratogen | – | –
7 | D-Camphor | 0.902 | 0.451 | – | – | – | 0 | – | – | – | – | Negative | >200 | 0 | 1 | 0.906 | 0.891 | – | – | HIT−CALL [2]: 0; Cell Count % Max Inhibition [3, 18]: 7.562%; MAX_MEAN [4, 19]: 7.36 Percent Activity; MAX_MED [4, 20]: 11.6 Percent Activity; DevTox % Max Inhibition [1, 21]: 9.33%; MAX_MEAN [1, 22]: 8.81 Percent Activity; MAX_MED [1, 23]: 9.33 Percent Activity; ga (winning model) [5]: −7; tp (winning model) [5]: 0.81
8 | OCCO [Ethylene Glycol] | – | – | – | – | – | – | – | – | – | – | – | – | – | – | – | – | – | – | HIT−CALL [2]: 0; MAX_MEAN [2]: 1.02; MAX_MED [2]: 0.539; Cell Count % Max Inhibition [3]: 7.044%; Cell Count ACC [3]: >200 µM; HIT−CALL [4]: 0; MAX_MEAN [4]: 15.9; MAX_MED [4]: 16.8; DevTox % Max Inhibition [1]: 6.931%; DevTox ACC [1]: >200 µM; HIT−CALL [1]: 0; Hit Call [1]: Negative; MAX_MEAN [1]: 6.33; MAX_MED [1]: 6.93; hit call designation (in words) [1]: false negative; maximum observed effect level class (% max inhibition) [1]: weak (key: high (80–100% max inhibition); moderate (20–80% max inhibition); weak (0–20% max inhibition)); HIT−CALL [5]: 0; MAX_MEAN [5]: 0.895; MAX_MED [5]: 0.908
9 | Cc1ccc(NC(=O)c2ccc(CN3CCN(C)CC3)cc2)cc1Nc1nccc(-c2cccnc2)n1 [Imatinib] | 6.74 | 6.89 | 97.8 | 7.83 | 8.88 | 0 | 101 | 101 | 101 | 101 | Positive | – | 1 | – | – | – | – | 9.465 | AC50 [2]: 14.1 µM; Emax [2]: 6.56%
10 | C=CC(N)=O [Acrylamide] | 0.47 | 0.417 | – | – | – | 0 | – | – | – | – | Negative | >200 | 0 | 1 | 1.03 | 1.06 | – | – | Cell Count % Max Inhibition [3, 18]: 16.9643%; MAX_MEAN [4, 19]: 6.64 Percent Activity; MAX_MED [4, 20]: 7.31 Percent Activity; DevTox % Max Inhibition [1, 21]: 9.423%; MAX_MEAN [1, 22]: 8.79 Percent Activity; MAX_MED [1, 23]: 9.42 Percent Activity; ga (winning model) [5]: −6.98; tp (winning model) [5]: 0.908
11 | CCCCOC(=O)c1ccc(O)cc1 [Butylparaben, 4−Hydroxybenzoic acid butyl ester] | 4.14 | 4.42 | 91.8 | 8.67 | 10.2 | 0 | 102 | 101 | 102 | 102 | Positive | 34.4685 | 1 | – | – | – | Non-Teratogen | – | AC50 [2]: 115 µM; Emax [2]: 6.25%; Development Toxicant Classification [6]: Negative; DT Class. [6]: Neg; hit call designation (in words) [1, 24]: false positive; AC50 ([1]; read-out: ga (winning model)): 50.1 µM; Emax [1, 17]: 80 to 100%; DevTox-GLR Endo ACC ([1]; 48 h exposure): 34.47 µM
12 | CC1=C(/C=C/C(C)=C/C=C/C(C)=C/CO)C(C)(C)CCC1 [Retinol] | 23.5 | 25.3 | 97.3 | 1.1 | 1.06 | 0 | 94.5 | 94.3 | 94.5 | 117 | Positive | 13.0451 | 1 | – | – | – | Non-Teratogen | 12.6287 | AC50 [2]: 46.8 µM; Emax [2]: 26%; DevTox-GLR Endo CC ([3]; human, 48 h): 12.63 µM; Development Toxicant Classification [6]: Negative; DT Class. [6]: Neg; hit call designation (in words) [1, 24]: false positive; AC50 [1, 12]: 33.9 µM; Emax [1, 17]: 80 to 100%; DevTox-GLR Endo ACC ([1]; 48 h exposure): 13.05 µM
13 | CC(=O)Nc1ccc(O)cc1 [Acetaminophen] | 0.992 | 0.603 | 13.1 | 11.3 | 10.3 | 0 | 10.5 | 11.3 | 10.5 | – | Negative | >200 | 0 | 0 | 0.829 | 0.865 | – | >200 | effect on SOX17-positive cells (in words) ([1]; 48 h exposure during directed endoderm differentiation): no observed effect
